Results taken from US9346803B2 (Vanderbilt University, priority 2011, dated 2016).
“Also recorded” adds a separate entry of the source.

Tests used:
[1] = target: homogeneous recombinant AKR1C3 (Homo sapiens (Human), UniProt P42330); test: Inhibition of NADP+ dependent oxidation of S-tetralol catalyzed by AKR1C3; format: biochemical; conditions: S-tetralol substrate at Km
AKR1C1 = AKR1C1 (Homo sapiens (Human), UniProt Q04828); test: Inhibition of S-tetralol oxidation, AKR1C1; format: biochemical; conditions: for IC50: S-tetralol substrate at Km
Text: Inhibitors were initially screened for an ability to block the NADP+ dependent oxidation of the artificial substrate S-tetralol catalyzed by AKR1C3. S-tetralol was used since it is also a substrate of the highly related AKR1C1 and AKR1C2 enzymes.
Initially, the ratios of IC50 values for AKR1C2 versus AKR1C3 were compared. High ratios were indicative of high selectivity for AKR1C3.
The latter assay is used to determine whether lead compounds act as AR agonists or block 5α-DHT reporter gene activity by acting as androgen receptor antagonists.

AKR1C2 = AKR1C2 (Homo sapiens (Human), UniProt P52895); test: Inhibition of S-tetralol oxidation, AKR1C2; format: biochemical; conditions: for IC50: S-tetralol substrate at Km
COX-1 = test: Screen against COX-1; format: biochemical; conditions: at concentrations greater than 100 μM
androgen receptor (AR) = test: HeLa-cell androgen receptor (AR) luciferase reporter gene assay driven by DHT; format: cell-based; conditions: for AR agonism or antagonism (DHT stimulation of the AR): AR luciferase reporter gene assay; for androgen receptor antagonism: luciferase AR reporter gene assay driven by DHT, FIG. 11
Text: Secondary screens involve one or more of: (a) a full-screen against all nine human recombinant AKR enzymes to ensure there are no-intended off-target effects; (b) a screen against COX-1 and COX-2 to reaffirm that compounds will not act as NSAIDs; and (c) a HeLa-cell androgen receptor (AR) reporter gene assay. The latter assay is used to determine whether lead compounds act as AR agonists or block 5α-DHT reporter gene activity by acting as androgen receptor antagonists.

[2] = test system: LNCaP cells stably transfected with AKR1C3; test: Conversion of Δ4-androstene-3,17-dione to testosterone in LNCaP-AKR1C3 transfected cells; format: cell-based, human; conditions: 30 μM
Text: Tertiary screens involve one or more of (d) expanded reporter gene assays to determine whether compounds act as agonists or antagonists of other steroid hormone receptors; (e) inhibition of the conversion of Δ^4-androstene-3,17-dione to testosterone in androgen receptor dependent prostate cancer cells (including, but not limited to LNCaP; available from the American type Culture Collection (ATCC), Manassas, Va., United States of America) stably transfected with AKR1C3; and (f) inhibition of growth of castrate-resistant prostate cancer cells in a murine xenograft model.

AKR1C4 = AKR1C4 (Homo sapiens (Human), UniProt P17516); test: Inhibition of S-tetralol oxidation, AKR1C4; format: biochemical
VCaP cells = test: Δ4-androstene-3,17-dione driven expression of PSA in VCaP cells; format: cell-based, human
[3] = test system: VCaP cells in a murine xenograft model; conditions: Cai et al., 2011; cited from earlier work

Sequence of AKR1C2 (P52895 whole entry): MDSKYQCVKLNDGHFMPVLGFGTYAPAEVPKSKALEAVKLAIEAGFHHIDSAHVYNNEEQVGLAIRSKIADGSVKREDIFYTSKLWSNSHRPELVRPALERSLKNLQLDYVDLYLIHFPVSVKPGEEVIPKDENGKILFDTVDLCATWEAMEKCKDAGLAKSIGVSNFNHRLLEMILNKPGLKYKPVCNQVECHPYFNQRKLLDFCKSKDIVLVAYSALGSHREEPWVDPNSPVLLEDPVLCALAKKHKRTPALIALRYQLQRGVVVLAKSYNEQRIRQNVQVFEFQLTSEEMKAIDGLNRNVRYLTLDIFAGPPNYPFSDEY
Sequence of AKR1C1 (Q04828 whole entry): as the sequence (P52895 whole entry) above, with V38T, H47R, V54L, S87C, M151V, H170R, L172Q counted along it
Sequence of homogeneous recombinant AKR1C3 (P42330 whole entry): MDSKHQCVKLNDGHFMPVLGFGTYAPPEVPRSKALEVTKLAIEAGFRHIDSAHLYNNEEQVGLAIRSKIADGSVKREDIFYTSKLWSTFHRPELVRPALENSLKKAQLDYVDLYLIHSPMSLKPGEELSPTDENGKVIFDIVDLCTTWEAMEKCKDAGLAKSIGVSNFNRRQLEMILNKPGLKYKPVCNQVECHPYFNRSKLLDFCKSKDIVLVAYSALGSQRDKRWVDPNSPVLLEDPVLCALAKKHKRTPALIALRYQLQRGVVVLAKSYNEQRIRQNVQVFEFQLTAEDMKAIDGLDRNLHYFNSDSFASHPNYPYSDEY
Sequence of AKR1C4 (P17516 whole entry): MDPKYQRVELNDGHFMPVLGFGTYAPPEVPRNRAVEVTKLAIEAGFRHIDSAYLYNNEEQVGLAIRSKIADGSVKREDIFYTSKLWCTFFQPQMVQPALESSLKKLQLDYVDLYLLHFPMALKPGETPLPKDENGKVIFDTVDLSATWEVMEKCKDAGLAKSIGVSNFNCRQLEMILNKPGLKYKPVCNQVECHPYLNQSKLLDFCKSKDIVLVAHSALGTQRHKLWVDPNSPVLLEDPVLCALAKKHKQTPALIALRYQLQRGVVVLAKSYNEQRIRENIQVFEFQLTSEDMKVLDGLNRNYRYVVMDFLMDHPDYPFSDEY

Molecule `COc1ccc2c(c1)c(C)c(CCC(=O)NS(C)(=O)=O)n2C(=O)c1ccc(Cl)cc1` [drawing 38] has an IC50 [1] of 0.34 µM, an IC50 (AKR1C1) of 100 µM and an IC50 (AKR1C2) of 93 µM.

`CCc1c(CCC(=O)O)n(C(=O)c2ccc(Cl)cc2)c2ccc(OC)cc12` showed an IC50 [1] of 0.09 µM, an IC50 (AKR1C1) of 30.7 µM and an IC50 (AKR1C2) of 49.6 µM.

Molecule `COc1ccc2c(c1)c(CC(=O)O)c(C)n2C(=O)c1ccc(C(F)(F)F)cc1` has an IC50 (AKR1C2) of 35.7 µM.

With `COc1ccc2c(c1)c(C)c(CCC(=O)NS(C)(=O)=O)n2C(=O)c1ccc(Cl)cc1` [Compound 3] the COX-1 inhibition (COX-1) was “did not inhibit COX-1”, the “AR agonism or antagonism (DHT stimulation of the AR)” value (“AR agonism or antagonism” below) (androgen receptor (AR)) was “did not act as AR agonists or antagonists” and the androgen receptor antagonism (androgen receptor (AR)) was “lack of androgen receptor antagonism”. For the same molecule, the “conversion of Δ4-androstene-3,17-dione to testosterone” value [2] was “completely blocked”.

In the case of `COc1ccc2c(c1)c(CC(=O)NS(=O)(=O)C(F)(F)F)c(C)n2C(=O)c1ccc(Cl)cc1`, the IC50 [1] is reported as 0.74 µM, the “fold selectivity for AKR1C3 over AKR1C1” value (AKR1C1; number in parenthesis) is reported as over 135 fold and the IC50 (AKR1C2) is reported as 81 µM. The “fold selectivity for AKR1C3 over AKR1C2” value (AKR1C2; number in parenthesis, ratio of IC50 values) was 108 fold and the “fold selectivity for AKR1C3 over AKR1C4” value (AKR1C4; number in parenthesis) was over 135 fold.

For `COc1ccc2c(c1)c(CC(=O)O)c(C)n2C(=O)c1ccc(Cl)cc1` [indomethacin], the “Δ4-androstene-3,17-dione driven expression of PSA” value (VCaP cells) is listed as “blocked; also recorded: inhibition” and the “AR dependent gene transcription and tumor growth in xenograft” value [3] is listed as “block AR dependent gene transcription and cell growth and proliferation of the tumor”.

Work on `COc1ccc2c(c1)c1c(n2C(=O)c2ccc(Cl)cc2)CCC(C(=O)O)C1` (stereo not shown) yielded an IC50 (AKR1C4; S-tetralol substrate at Km) of 3.15 µM.

In the case of `COc1ccc2c(c1)c(CC(=O)NS(=O)(=O)C(F)(F)F)cn2C(=O)c1ccc(Cl)cc1` [Compound 1], the “AR agonism or antagonism” value (androgen receptor (AR)) is reported as “did not act as AR agonists or antagonists” and the androgen receptor antagonism (androgen receptor (AR)) is reported as “lack of androgen receptor antagonism”.

Work on `COc1ccc2c(c1)c(C)c(CCC(=O)O)n2C(=O)c1ccc(Cl)cc1` [drawing 37] yielded an IC50 (AKR1C1) of 17.7 µM and an IC50 (AKR1C2) of 14.5 µM.

For `COc1ccc2c(c1)c(C)c(CCC(=O)O)n2C(=O)c1ccc(Cl)cc1` [Compound 2], the COX-1 inhibition (COX-1) was “did not inhibit COX-1”, the “AR agonism or antagonism” value (androgen receptor (AR)) was “did not act as AR agonists or antagonists” and the androgen receptor antagonism (androgen receptor (AR)) was “lack of androgen receptor antagonism”. For the same molecule, the “conversion of Δ4-androstene-3,17-dione to testosterone” value [2] was “completely blocked”.

Molecule `COc1ccc2c(c1)c(CC(=O)O)c(C)n2C(=O)c1ccc(C)cc1` has an IC50 [1] of 0.16 µM.

Work on `COc1ccc2c(c1)c(CC(=O)O)c(C)n2C(=O)c1ccc(CCl)cc1` yielded an IC50 [1] of 0.12 µM, an IC50 (AKR1C1) of 100 µM and an IC50 (AKR1C2) of 40.7 µM.
